Source: ChEMBL document CHEMBL1201862, “PubChem BioAssay data set” (2004)
Activity calls are given as the source filed them.

Legend:
[1] = molecular target: Aspartyl aminopeptidase (Plasmodium falciparum 3D7, UniProt Q8I2J3)
[2] = molecular target: Procathepsin L (Homo sapiens, UniProt P07711)
[3] = molecular target: Dual specificity tyrosine-phosphorylation-regulated kinase 1A (Rattus norvegicus, UniProt Q63470); format: biochemical, Homo sapiens
[4] = molecular target: T1, Rac GTPase-activating protein 1 (Homo sapiens, UniProt Q9H0H5); assay: MgcRacGAP GTPase-activating activity inhibitors, confirmation, biochemical, ADP Hunter fluorescence, primary and confirmatory (AID 624330); format: functional
T1 sequence (Q9H0H5 whole entry): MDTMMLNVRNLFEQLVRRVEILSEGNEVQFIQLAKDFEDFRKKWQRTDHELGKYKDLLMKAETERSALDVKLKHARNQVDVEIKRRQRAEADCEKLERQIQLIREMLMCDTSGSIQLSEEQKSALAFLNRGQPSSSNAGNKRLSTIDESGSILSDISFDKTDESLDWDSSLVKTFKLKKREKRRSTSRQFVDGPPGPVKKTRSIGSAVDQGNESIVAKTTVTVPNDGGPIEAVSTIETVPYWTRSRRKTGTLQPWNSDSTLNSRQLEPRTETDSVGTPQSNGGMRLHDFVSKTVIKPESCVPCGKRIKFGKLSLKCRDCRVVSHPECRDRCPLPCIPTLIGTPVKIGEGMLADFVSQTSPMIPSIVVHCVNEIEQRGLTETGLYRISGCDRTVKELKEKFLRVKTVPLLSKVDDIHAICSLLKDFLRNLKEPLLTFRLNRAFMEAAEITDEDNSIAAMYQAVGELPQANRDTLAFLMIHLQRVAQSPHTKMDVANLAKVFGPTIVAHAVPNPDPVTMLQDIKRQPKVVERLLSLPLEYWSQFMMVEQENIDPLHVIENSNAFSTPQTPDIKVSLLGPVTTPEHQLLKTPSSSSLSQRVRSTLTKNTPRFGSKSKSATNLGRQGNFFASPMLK

[5] = molecular target: Scavenger receptor class B member 1 (Mus musculus, UniProt Q61009); assay: inhibitors of SR-BI mediated HDL lipid uptake, dose response, ldlA[mSR-BI] cells, fluorescence, cherry pick (AID 493194); format: functional, cell-based;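 note: cellular uptake of fluorescent DiI-labeled HDL measured as cell fluorescence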
[6] = molecular target: T2, Eukaryotic translation initiation factor 2-alpha kinase 3 (Homo sapiens, UniProt Q9NZJ5); assay: Dose response cell-based high-throughput screening assay to measure PERK inhibition. [Related pubchem assays: 1416 ]; format: functional
T2 sequence (Q9NZJ5 whole entry): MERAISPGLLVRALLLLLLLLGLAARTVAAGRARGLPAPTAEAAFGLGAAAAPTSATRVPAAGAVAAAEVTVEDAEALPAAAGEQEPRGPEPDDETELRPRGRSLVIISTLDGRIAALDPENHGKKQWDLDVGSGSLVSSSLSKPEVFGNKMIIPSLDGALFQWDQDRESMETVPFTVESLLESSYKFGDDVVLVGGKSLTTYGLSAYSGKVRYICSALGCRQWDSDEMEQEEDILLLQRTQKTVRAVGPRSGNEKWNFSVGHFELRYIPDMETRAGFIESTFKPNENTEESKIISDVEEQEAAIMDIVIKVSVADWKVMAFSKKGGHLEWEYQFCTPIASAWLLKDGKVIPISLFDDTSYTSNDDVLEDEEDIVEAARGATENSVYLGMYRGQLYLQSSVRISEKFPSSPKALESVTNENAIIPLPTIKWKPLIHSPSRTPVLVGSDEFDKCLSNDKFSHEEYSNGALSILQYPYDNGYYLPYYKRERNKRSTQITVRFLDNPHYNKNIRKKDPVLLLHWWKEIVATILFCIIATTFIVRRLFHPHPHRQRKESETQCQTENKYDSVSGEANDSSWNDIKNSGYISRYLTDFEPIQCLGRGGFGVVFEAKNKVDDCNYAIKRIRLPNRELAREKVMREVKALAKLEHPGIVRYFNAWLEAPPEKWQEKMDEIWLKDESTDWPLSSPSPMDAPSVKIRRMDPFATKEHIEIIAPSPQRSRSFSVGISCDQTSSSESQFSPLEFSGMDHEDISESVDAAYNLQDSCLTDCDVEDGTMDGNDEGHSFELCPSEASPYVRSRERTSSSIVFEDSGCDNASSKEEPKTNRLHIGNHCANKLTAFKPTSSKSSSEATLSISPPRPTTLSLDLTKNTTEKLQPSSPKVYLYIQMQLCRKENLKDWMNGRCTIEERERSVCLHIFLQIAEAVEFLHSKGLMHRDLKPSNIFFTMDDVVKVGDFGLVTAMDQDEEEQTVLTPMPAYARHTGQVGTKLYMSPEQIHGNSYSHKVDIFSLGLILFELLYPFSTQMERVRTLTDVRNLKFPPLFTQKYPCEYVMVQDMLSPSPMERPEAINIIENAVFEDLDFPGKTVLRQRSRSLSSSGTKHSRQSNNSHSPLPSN

[7] = molecular target: T2, Eukaryotic translation initiation factor 2-alpha kinase 3; assay: Counterscreen assay for PERK inhibitors: Dose response cell-based high throughput screening assay to measure inhibition of PERK at 6 hours. [Related pubchem assays: 1522, 1416 ]; format: functional
[8] = molecular target: Lysosomal acid glucosylceramidase (Homo sapiens, UniProt P04062); assay: Dose response cell-based high throughput screening assay to identify enhancers of beta-glucosidase activity. [Related pubchem assays: 784 ]; format: functional
[9] = molecular target: Metabotropic glutamate receptor 4 (Rattus norvegicus, UniProt P31423); assay: Modulation of the Metabotropic Glutamate Receptor mGluR4: Rat PAM Potency. [Related pubchem assays (depositor defined):AID2437, AID2807]; format: functional
[10] = molecular target: Serine/threonine-protein phosphatase PP1-alpha catalytic subunit (Homo sapiens, UniProt P62136); assay: PP1 phosphatase inhibitors, dose response, biochemical, fluorescence (AID 2394)
Serine/threonine-protein phosphatase PP1-alpha catalytic subunit, sequence (P62136 whole entry): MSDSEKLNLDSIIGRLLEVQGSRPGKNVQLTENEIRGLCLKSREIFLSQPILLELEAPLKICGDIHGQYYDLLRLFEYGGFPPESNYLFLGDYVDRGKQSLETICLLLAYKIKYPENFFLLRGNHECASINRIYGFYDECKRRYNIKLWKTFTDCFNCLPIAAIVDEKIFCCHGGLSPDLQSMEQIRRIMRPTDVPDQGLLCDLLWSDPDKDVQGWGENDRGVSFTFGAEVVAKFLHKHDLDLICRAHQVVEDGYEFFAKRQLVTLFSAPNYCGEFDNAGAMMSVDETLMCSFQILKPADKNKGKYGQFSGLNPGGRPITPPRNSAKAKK

[11] = molecular target: T3, SUMO-activating enzyme (Homo sapiens, UniProt Q9UBT2); assay: SUMOylation inhibitor hit validation, confirmation, SUMOylation inhibitor project, biochemical, AlphaScreen (AID 2018); format: functional
T3 sequence (Q9UBE0 whole entry): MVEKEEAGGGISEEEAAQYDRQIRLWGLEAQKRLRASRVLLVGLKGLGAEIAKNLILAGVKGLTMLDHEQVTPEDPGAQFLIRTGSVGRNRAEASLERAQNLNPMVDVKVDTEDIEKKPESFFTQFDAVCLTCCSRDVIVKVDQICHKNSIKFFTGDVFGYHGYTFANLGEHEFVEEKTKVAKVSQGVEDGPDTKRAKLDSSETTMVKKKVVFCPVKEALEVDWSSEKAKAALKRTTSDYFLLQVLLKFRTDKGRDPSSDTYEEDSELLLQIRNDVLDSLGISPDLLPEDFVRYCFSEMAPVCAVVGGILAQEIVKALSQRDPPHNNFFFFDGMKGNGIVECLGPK
T3 sequence (Q9UBT2 whole entry): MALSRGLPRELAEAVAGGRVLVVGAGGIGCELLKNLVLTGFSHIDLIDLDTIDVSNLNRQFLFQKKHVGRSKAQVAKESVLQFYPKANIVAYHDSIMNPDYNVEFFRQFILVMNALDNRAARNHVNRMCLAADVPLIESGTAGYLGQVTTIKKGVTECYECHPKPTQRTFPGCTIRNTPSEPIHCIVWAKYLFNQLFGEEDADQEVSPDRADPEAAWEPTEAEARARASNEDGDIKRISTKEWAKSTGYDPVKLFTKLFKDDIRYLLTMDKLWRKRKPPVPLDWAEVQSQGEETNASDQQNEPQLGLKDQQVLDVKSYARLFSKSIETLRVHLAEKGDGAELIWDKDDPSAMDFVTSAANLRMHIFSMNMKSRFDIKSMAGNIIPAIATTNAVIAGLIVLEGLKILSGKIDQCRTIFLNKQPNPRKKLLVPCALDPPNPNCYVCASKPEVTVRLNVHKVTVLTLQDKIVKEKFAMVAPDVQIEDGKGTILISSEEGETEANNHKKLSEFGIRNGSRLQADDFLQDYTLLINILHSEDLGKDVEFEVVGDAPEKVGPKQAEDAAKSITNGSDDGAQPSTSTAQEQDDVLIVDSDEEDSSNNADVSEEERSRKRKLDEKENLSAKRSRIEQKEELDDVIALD

[12] = molecular target: T3, SUMO-activating enzyme; assay: inhibitors of in vitro SUMOylation cascade, primary screen, biochemical, HTRF, uHTS (AID 2006); format: protein-complex assay
[13] = inhibitors of intracellular T. cruzi replication, confirmation, NIH3T3 host cells, beta-gal luminescence (AID 2044); format: functional, cell-based;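 note: intracellular parasites grown in NIH/3T3 mouse fibroblasts as host cells; luminescent beta-galactosidase reporter signal from transgenic T. cruzi replicating inside host cells; inhibitors lower the luminescence signal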
[14] = molecular target: Serine/threonine-protein phosphatase (Homo sapiens, UniProt Q9BPW0); assay: PP5 phosphatase inhibitors, dose response, biochemical, fluorescence (AID 2395)
Serine/threonine-protein phosphatase, sequence (Q9BPW0 whole entry): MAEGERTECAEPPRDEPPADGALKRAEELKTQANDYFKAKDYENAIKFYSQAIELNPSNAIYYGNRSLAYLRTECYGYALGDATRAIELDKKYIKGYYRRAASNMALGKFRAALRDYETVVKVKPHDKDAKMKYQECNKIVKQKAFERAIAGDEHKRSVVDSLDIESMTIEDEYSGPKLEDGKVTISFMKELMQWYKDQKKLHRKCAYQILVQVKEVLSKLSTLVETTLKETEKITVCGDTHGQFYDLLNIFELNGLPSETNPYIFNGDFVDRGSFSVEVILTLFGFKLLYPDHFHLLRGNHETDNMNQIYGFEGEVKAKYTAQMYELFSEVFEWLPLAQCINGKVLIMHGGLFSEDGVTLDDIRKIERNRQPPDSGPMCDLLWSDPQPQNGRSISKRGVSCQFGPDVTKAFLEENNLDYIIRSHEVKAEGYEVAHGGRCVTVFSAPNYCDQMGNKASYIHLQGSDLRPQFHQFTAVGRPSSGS

[15] = cytotoxicity toward NIH3T3 fibroblasts, dose response, counter-screen, cell-based, ATP luminescence, mouse fibroblasts (AID 2010); format: functional;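 note: cells exposed to compound for about 90 hours before reading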
[16] = molecular target: T4, Heat shock protein HSP 90-alpha (Homo sapiens, UniProt P07900); assay: Luminescence-based dose response biochemical high throughput screening assay for inhibitors of the Heat Shock Protein 90 (HSP90). [Related pubchem assays: 1831 (Summary AID.), 1846 (Confirmation screen.), 1789 (Primary screen.)]
[17] = molecular target: T5, Hexokinase HKDC1 (Homo sapiens, UniProt Q2TB90); assay: HKDC1 hexokinase inhibitors, dose response, biochemical, W721R variant (AID 504729); format: functional
T5 sequence (Q2TB90 whole entry): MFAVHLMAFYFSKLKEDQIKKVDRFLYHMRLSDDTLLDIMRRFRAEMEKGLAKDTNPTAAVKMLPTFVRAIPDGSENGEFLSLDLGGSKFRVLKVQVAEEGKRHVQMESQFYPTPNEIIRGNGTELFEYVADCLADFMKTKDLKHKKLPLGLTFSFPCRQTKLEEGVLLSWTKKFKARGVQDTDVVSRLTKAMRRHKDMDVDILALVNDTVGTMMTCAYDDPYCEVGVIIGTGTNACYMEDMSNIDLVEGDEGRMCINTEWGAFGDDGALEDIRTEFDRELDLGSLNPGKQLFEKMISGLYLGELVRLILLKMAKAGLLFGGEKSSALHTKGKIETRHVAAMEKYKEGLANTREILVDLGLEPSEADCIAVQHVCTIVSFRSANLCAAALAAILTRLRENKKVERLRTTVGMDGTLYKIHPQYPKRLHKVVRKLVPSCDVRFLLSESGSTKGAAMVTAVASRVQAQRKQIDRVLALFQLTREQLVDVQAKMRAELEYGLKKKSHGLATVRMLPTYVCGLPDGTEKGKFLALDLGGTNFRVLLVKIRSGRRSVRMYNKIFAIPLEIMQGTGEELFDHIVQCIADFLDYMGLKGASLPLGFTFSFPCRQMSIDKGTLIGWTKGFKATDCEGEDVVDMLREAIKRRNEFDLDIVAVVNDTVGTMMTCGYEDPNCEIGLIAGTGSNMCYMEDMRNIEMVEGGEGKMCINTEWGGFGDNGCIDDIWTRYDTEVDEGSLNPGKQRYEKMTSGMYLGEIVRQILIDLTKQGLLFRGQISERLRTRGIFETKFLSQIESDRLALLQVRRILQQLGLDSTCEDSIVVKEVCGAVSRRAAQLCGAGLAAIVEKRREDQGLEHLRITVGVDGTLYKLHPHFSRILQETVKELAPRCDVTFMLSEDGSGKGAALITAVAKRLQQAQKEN

[18] = molecular target: T6, Apoptotic protease-activating factor 1 (Homo sapiens, UniProt O14727); format: functional
T6 sequence (O14727 whole entry): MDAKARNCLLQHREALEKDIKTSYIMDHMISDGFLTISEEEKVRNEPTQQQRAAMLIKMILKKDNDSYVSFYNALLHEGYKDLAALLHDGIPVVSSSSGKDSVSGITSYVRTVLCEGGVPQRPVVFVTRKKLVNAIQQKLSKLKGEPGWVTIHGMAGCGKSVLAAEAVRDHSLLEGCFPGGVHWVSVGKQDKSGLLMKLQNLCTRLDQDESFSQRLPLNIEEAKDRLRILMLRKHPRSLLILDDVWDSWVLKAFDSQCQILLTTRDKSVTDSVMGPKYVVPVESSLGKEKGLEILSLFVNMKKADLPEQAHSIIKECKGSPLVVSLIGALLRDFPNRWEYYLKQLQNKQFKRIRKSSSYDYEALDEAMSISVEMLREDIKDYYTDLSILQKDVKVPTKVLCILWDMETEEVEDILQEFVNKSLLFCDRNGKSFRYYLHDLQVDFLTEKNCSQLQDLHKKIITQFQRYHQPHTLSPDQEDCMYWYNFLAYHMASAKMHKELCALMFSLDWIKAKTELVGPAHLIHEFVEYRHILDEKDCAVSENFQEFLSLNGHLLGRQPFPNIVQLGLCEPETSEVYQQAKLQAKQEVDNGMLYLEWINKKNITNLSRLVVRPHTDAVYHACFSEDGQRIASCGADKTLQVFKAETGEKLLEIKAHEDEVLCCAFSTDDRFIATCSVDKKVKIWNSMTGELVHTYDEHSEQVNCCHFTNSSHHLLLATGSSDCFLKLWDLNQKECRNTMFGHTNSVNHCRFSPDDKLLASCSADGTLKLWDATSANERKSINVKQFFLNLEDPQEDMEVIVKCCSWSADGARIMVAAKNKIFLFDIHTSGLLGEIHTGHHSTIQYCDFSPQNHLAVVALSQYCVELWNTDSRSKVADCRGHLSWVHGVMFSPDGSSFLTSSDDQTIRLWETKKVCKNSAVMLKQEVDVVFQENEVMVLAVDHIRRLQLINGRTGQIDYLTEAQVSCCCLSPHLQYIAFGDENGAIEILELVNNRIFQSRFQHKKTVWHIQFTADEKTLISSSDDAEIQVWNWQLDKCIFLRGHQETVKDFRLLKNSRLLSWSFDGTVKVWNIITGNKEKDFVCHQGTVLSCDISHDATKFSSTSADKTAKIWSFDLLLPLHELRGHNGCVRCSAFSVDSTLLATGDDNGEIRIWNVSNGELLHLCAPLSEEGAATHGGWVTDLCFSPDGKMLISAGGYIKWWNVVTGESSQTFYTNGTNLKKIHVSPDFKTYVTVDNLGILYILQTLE

[19] = test system: INS1; assay: beta cell apoptosis inhibitors, cytokine rescue, dose response, luminescence, retest (AID 449756); format: functional, cell-based; conditions: Rattus norvegicus;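 note: cell death triggered by IL-1 beta plus TNF-alpha plus IFN-gamma mixture; protective hits raise ATP signal compared with cytokine alone wells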
[20] = molecular target: T7, Mitochondrial peptide methionine sulfoxide reductase (Bos taurus, UniProt P54149); format: functional;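 note: absorbance read-out, biochemical high-throughput dose-response screen for MsrA inhibitors, confirmatory; recombinant bovine MsrA coupled to E. coli TrxB with NADPH and selenocystamine; potency is for inhibitors of MsrA activity on DMSO substrate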
T7 sequence (P54149 whole entry): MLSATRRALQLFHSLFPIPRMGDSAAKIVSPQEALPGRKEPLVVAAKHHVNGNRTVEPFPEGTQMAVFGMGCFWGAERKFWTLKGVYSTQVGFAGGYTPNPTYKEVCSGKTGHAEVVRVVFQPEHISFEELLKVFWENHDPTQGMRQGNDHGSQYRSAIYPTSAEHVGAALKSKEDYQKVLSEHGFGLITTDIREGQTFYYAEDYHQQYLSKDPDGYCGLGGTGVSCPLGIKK

[21] = molecular target: Large T antigen (Simian virus 40, UniProt P03070); format: functional, Betapolyomavirus macacae;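 note: Confirmatory-stage PubChem screen for compounds that inhibit SV40 T antigen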
Large T antigen, sequence (P03070 whole entry): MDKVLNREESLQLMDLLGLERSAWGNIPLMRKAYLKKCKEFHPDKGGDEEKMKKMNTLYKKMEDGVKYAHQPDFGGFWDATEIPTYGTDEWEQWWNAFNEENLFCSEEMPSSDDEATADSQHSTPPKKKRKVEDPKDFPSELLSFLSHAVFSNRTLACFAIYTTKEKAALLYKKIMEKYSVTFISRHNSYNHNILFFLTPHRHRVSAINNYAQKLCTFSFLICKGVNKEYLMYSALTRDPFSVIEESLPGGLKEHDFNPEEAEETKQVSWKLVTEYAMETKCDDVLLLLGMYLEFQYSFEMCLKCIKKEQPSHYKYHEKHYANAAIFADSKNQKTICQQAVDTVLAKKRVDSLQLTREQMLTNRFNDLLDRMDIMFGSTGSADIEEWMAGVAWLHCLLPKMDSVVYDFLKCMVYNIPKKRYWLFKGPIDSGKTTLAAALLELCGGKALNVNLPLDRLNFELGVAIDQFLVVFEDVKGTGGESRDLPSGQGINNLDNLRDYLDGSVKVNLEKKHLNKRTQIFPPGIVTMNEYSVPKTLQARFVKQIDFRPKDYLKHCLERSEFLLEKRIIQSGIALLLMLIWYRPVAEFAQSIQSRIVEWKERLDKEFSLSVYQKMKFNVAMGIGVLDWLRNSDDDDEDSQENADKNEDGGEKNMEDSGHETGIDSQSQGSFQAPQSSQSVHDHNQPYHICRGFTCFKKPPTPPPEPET

[22] = molecular target: NS3 (Hepatitis C virus, UniProt A3EZJ3); assay: PubChem AID 2173; design: species or system Hepacivirus hominis
[23] = molecular target: C-C chemokine receptor type 6 (Homo sapiens, UniProt P51684); assay: CCR6 receptor antagonists, dose response, cell-based, luminescent beta-arrestin readout (AID 504728); format: functional
[24] = molecular target: Beta-galactosidase (Escherichia coli, UniProt Q8VNN2); assay: beta-galactosidase enzyme inhibitors and activators, dose response, artefact control for CCR6 antagonist project, biochemical, E. coli enzyme, set 3 (AID 504712); format: functional
Beta-galactosidase, sequence (Q8VNN2 whole entry): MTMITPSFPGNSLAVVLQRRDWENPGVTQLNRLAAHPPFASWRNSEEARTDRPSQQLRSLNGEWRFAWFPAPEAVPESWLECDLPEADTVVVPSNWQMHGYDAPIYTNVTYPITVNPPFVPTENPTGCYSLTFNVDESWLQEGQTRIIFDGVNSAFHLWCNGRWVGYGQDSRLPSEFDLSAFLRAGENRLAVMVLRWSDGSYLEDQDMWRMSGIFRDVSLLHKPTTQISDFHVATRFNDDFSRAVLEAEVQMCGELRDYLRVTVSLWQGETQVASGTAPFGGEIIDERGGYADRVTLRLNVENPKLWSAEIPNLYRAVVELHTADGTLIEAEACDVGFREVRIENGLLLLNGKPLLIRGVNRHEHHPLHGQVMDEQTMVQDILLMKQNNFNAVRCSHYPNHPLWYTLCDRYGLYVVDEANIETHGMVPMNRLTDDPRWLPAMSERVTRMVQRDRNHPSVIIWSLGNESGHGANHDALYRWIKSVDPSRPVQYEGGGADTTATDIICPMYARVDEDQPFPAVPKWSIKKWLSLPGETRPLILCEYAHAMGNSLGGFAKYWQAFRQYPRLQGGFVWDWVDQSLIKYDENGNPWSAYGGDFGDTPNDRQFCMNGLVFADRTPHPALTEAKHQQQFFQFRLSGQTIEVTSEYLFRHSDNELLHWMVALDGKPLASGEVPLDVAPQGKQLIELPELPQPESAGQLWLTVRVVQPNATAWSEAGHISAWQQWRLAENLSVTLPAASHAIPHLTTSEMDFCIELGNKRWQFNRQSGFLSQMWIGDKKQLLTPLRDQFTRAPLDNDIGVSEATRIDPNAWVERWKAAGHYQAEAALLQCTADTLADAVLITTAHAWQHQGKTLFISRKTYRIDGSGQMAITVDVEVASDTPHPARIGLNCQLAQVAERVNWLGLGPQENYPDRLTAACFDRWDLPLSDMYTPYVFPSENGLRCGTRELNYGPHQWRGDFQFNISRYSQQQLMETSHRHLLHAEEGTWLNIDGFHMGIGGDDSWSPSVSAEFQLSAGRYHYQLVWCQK

[25] = molecular target: T4, Heat shock protein HSP 90-alpha; format: functional, organism-based
[26] = molecular target: T8, High affinity choline transporter 1 (Homo sapiens, UniProt Q9GZV3); assay: CHT inhibitors, dose response, cell-based, 5-point CRC, membrane potential dye (AID 504840); format: functional
T8 sequence (Q9GZV3 whole entry): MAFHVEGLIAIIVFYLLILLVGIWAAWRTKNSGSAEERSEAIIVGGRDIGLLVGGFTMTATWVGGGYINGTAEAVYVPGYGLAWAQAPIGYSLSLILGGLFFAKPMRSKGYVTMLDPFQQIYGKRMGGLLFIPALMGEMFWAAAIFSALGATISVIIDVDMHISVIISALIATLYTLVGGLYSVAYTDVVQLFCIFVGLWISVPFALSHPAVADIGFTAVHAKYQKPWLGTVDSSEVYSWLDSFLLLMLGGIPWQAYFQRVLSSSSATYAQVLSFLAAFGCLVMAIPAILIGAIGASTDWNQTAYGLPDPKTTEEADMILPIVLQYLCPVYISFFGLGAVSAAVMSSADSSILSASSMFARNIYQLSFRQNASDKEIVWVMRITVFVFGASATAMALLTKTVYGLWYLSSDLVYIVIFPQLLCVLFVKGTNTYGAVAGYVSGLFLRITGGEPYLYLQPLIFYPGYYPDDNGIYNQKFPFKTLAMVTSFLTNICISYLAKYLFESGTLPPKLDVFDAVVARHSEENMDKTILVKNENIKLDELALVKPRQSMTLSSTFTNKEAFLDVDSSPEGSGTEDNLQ

Procathepsin L, sequence (P07711 whole entry): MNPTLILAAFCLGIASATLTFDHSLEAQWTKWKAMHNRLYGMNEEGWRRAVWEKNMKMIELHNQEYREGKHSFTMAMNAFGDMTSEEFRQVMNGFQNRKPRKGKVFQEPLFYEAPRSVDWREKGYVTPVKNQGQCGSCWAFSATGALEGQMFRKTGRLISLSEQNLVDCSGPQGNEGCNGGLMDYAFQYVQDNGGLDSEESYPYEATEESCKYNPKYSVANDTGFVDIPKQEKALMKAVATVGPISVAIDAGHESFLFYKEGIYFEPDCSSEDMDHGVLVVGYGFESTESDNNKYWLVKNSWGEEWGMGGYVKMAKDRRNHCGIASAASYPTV

## Oc1ccc(-c2csc(-c3cccnc3)n2)cc1O
[1]
  IC50: 1.81 µM (active)
[2]
  IC50: > 59.6 µM (not active)
[3]
  AC50: 7.37 µM (active)
[4]
  IC50: 9.47 µM (active)

## COCc1cc(=O)oc2cc(NC(=O)c3ccc(C(C)(C)C)cc3)ccc12
[5]
  AC50: 50.2 µM (active)

## Cc1c2cnn(-c3ccccc3)c(=O)c2c(C)n1CCCC(=O)NCCN1CCN(C)CC1
[6]
  EC50: > 55.7 µM (not active)
[7]
  EC50: > 55.7 µM (not active)

## COC(=O)c1cn(NC(=O)c2ccncc2)c(=O)c2ccccc12
[8]
  EC50: > 50 µM (not active)

## O=C(Nc1ccc(N2C(=O)c3ccccc3C2=O)c(Cl)c1)c1ccccn1
[9]
  EC50: 0.07 µM (active)

## CC(=O)Nc1ccc(NC2=C/C(=N/S(=O)(=O)c3cccs3)c3ccccc3C2=O)cc1
[10]
  IC50: > 67 µM (not active)
[11]
  IC50: 1.34 µM (active)
[12]
  IC50: > 100 µM (inactive)
[13]
  EC50: 3.44 µM (active)
[14]
  IC50: 12.3 µM (not active)
[15]
  EC50: 3.58 µM (active)
[16]
  IC50: 1.61 µM (active)
[17]
  IC50: 3.72 µM (active)
[18]
  IC50: 1.48 µM (active)
[19]
  AC50: 4.23 µM (active)
[20]
  IC50: 14.3 µM (inactive)

## O=[N+]([O-])c1cc(Cc2ccccc2)cc(/C=N/c2ccc(N3CCOCC3)cc2)c1O
[21]
  IC50: 2.64 µM (active)
[22]
  IC50: 7.65 µM (active)
[23]
  IC50: > 66.6 µM (inactive)
[24]
  IC50: > 66.6 µM (inactive)
[25]
  AC50: 4.32 µM (active)
[26]
  IC50: 9.12 µM (active)
